# Measured values reported in US20250230193A1, “CYCLIC COMPOUND HAVING SELECTIVE KRAS INHIBITORY EFFECT ON HRAS AND NRAS” (CHUGAI SEIYAKU KABUSHIKI KAISHA, priority 2022, published 2025).
# Like-named read-outs stand apart in the source and are kept apart here. *1 amine or outer side, *2 acyl side, *3 side chain or, on linkers, in order; H or OH if unused. Where a SMILES comes first, the peptide text is derived from it. Bridges are numbered along the chain shown (N, C = ends). [ ]: non-standard residue; d: D form. The star is where a group is joined. hPhe(3,5-F2-4-CF3) = N[C@@H](CCc1cc(F)c(C(F)(F)F)c(F)c1)C(=O)O; dhPhe(3-Cl,4-CF3) = N[C@H](CCc1ccc(C(F)(F)F)c(Cl)c1)C(=O)O; X8 = CCCN([C@@H](Cc1ccc(OCC=[*:3])cc1)C(=O)[*:2])[*:1]; X3 = C=CCN([C@H](Cc1ccccc1)C(=O)[*:2])[*:1]; X7 = CN([C@@H](CCC=[*:3])C(=O)[*:2])[*:1]; NMeGly(cPent) = CN[C@H](C(=O)O)C1CCCC1; NMeNle(5-ene) = C=CCC[C@H](NC)C(=O)O; Hyp = O=C(O)[C@@H]1C[C@@H](O)CN1; NMeD = CN[C@@H](CC(=O)O)C(=O)O; NMeL = CN[C@@H](CC(C)C)C(=O)O; Morpholide = C1CN(*)CCO1; Ac5c = NC1(C(=O)O)CCCC1; Sar = CNCC(=O)O
# How the values were obtained:
# [1] = molecular target: GDP-bound KRAS wild-type protein (Homo sapiens, UniProt P01116); experiment: Binding to KRAS by surface plasmon resonance (SPR), Single Cycle Kinetics; conditions: GDP-bound KRAS wild-type protein
# [2] = molecular target: GDP-bound NRAS wild-type protein (Homo sapiens, UniProt P01111); experiment: Binding to NRAS by surface plasmon resonance (SPR), Single Cycle Kinetics; conditions: for NRAS/KRAS (ratio of KD value with respect to NRAS to KD value with respect to KRAS) / NRAS/KRAS (ratio of KD value for NRAS to KD value for KRAS): GDP-bound NRAS wild-type vs GDP-bound KRAS wild-type
# [3] = molecular target: GDP-bound HRAS wild-type protein (Homo sapiens, UniProt P01112); experiment: Binding to HRAS by surface plasmon resonance (SPR), Single Cycle Kinetics; conditions: for HRAS/KRAS (ratio of KD value with respect to HRAS to KD value with respect to KRAS) / HRAS/KRAS (ratio of KD value for HRAS to KD value for KRAS): GDP-bound HRAS wild-type vs GDP-bound KRAS wild-type
# [4] = test system: human lung cancer strain NCI-H441
# [5] = SPR, GDP-bound wild-type proteins
# [6] = read-out: NCI-H441 IC50, NCI-H441 cells, 4 days, CellTiter-Glo
# GDP-bound NRAS wild-type protein, sequence (P01111 whole entry): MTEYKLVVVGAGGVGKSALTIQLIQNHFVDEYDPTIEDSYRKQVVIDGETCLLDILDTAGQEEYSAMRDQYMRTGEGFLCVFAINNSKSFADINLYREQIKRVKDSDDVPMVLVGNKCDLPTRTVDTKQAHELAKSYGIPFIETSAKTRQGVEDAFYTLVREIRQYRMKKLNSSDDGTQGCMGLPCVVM
# GDP-bound HRAS wild-type protein, sequence (P01112 whole entry): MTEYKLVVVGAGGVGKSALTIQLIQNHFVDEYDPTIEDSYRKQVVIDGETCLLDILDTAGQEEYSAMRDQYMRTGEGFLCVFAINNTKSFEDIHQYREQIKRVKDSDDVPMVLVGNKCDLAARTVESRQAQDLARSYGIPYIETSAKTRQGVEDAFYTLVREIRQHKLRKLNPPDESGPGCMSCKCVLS
Compound,NRAS/KRAS (ratio of KD value for NRAS to KD value for KRAS) ([2]; SPR),HRAS/KRAS (ratio of KD value for HRAS to KD value for KRAS) ([3]; SPR),IC50 [4] [nM],other results
CCO[C@@H]1C[C@H]2C(=O)NC3(CCC3)C(=O)N(C)[C@@H](C3CCCC3)C(=O)N(C)[C@H](C(=O)N3CCOCC3)CC(=O)N(C)[C@@H](Cc3ccccc3)C(=O)N[C@@H]([C@@H](C)CC)C(=O)N(C)CC(=O)N(C)[C@H]3CCCCCN(C3=O)[C@@H](Cc3ccc(F)cc3)C(=O)N(C)CC(=O)N[C@@H](CCc3cc(F)c(C(F)(F)F)c(F)c3)C(=O)N2C1 [PP1181],,,,"Kd ([1]; SPR, Single Cycle Kinetics): 0.19 nM; NRAS/KRAS (ratio of KD value with respect to NRAS to KD value with respect to KRAS) ([2]; SPR): B (a compound having 3 or more and less than 10 is denoted as B); HRAS/KRAS (ratio of KD value with respect to HRAS to KD value with respect to KRAS) ([3]; SPR): B (a compound having 3 or more and less than 10 is denoted as B)"
"CCCN1C(=O)CN(C)C(=O)CN(C)C(=O)[C@H]([C@@H](C)CC)NC(=O)[C@@H]2CCC=CCOc3ccc(cc3)C[C@H]1C(=O)N(C)CC(=O)N[C@@H](CCc1cc(F)c(C(F)(F)F)c(F)c1)C(=O)N1C[C@H](OCC)C[C@H]1C(=O)NC1(CCCC1)C(=O)N(C)[C@@H](C1CCCC1)C(=O)N(C)[C@H](C(=O)N(C)C)CC(=O)N2C [PP0900] ([X7]I[Sar][Sar][X8][Sar][hPhe(3,5-F2-4-CF3)][Hyp](Et)[Ac5c][NMeGly(cPent)][NMeD]-NMe2; staple 1-5; lactam N-11)",,,,"Kd ([1]; SPR, Single Cycle Kinetics): 0.012 nM; NRAS/KRAS (ratio of KD value with respect to NRAS to KD value with respect to KRAS) ([2]; SPR): C (A compound having a KD ratio of 0.1 or more and less than 3 is denoted as C); HRAS/KRAS (ratio of KD value with respect to HRAS to KD value with respect to KRAS) ([3]; SPR): C (A compound having a KD ratio of 0.1 or more and less than 3 is denoted as C)"
CC[C@H](C)[C@@H]1NC(=O)[C@H](CC2CC2)N(C)C(=O)C[C@@H](C(=O)N(C)C)N(C)C(=O)[C@H](C2CCCC2)N(C)C(=O)C2(CC(C)(C)C2)NC(=O)[C@@H]2C[C@H](C)CN2C(=O)[C@H](CCc2cc(F)c(C(F)(F)F)c(F)c2)NC(=O)CN(C)C(=O)[C@H](Cc2ccc(C(F)(F)F)cc2)N2CC/C=C\C[C@@H](C2=O)N(C)C(=O)CN(C)C1=O [PP1660],A (a compound having 10 or more and less than 20 is denoted as A),A (a compound having 10 or more and less than 20 is denoted as A),4.3,
CCC[C@H]1C(=O)N[C@@H]([C@@H](C)CC)C(=O)N(C)CC(=O)N(C)[C@H]2C/C=C\CCN(C2=O)[C@@H](Cc2ccc(C(F)(F)F)cc2)C(=O)N(C)CC(=O)N[C@@H](CCc2ccc(C(F)(F)F)c(OC)c2)C(=O)N2C[C@H](OCC)C[C@H]2C(=O)NC2(CC(C)(C)C2)C(=O)N(C)[C@@H](C2CCCC2)C(=O)N(C)[C@H](C(=O)N(C)CC)CC(=O)N1C [PP1676],A (a compound having 10 or more and less than 20 is denoted as A),A (a compound having 10 or more and less than 20 is denoted as A),5,
CCCN(C)C(=O)[C@@H]1CC(=O)N(C)[C@@H](COC)C(=O)N[C@@H]([C@@H](C)CC)C(=O)N(C)CC(=O)N(C)[C@H]2C/C=C\CCN(C2=O)[C@@H](Cc2ccc(C(F)(F)F)cc2)C(=O)N(C)CC(=O)N[C@@H](CCc2cc(F)c(C(F)(F)F)c(F)c2)C(=O)N2C[C@H](OCC)C[C@H]2C(=O)NC2(CCC2)C(=O)N(C)[C@@H](C2CCCC2)C(=O)N1C [PP1706],A (a compound having 10 or more and less than 20 is denoted as A),A (a compound having 10 or more and less than 20 is denoted as A),6.7,
"CCO[C@@H]1C[C@H]2C(=O)NC3(CC(C)(C)C3)C(=O)N(C)[C@@H](C3CCCC3)C(=O)N(C)[C@H](C(=O)N3CCCCC3)CC(=O)N(C)[C@H]3CCCCc4ccc(cc4)C[C@@H](C(=O)N(C)CC(=O)N[C@@H](CCc4ccc(C(F)(F)F)c(OC)c4)C(=O)N2C1)N1CC/C=C\C[C@@H](C1=O)N(C)C(=O)CN(C)C(=O)[C@H]([C@@H](C)CC)NC3=O [PP3093, (1S,7S,11R,13S,19S,22S,26S,29S,35S,37Z)-19-cyclopentyl-11-ethoxy-7-[2-[3-methoxy-4-(trifluoromethyl)phenyl]ethyl]-3,3′,3′,18,21,25,31,34-octamethyl-29-[(1S)-1-methylpropyl]-22-(piperidine-1-carbonyl)spiro[3,6,9,15,18,21,25,28,31,34,41-undecazapentacyclo[24.15.9.2^43,46.1^35,41.0^9,13]tripentaconta-37,43(52),44,46(51)-tetraene-16,1′-cyclobutane]-2,5,8,14,17,20,24,27,30,33,53-undecone]",,,,"NRAS/KRAS (ratio of KD value with respect to GDP-bound NRAS wild-type protein to KD value with respect to KRAS) [2, 5]: A (a compound having 10 or more and less than 20 is denoted as A); HRAS/KRAS (ratio of KD value with respect to GDP-bound HRAS wild-type protein to KD value with respect to KRAS) [3, 5]: A (a compound having 10 or more and less than 20 is denoted as A); IC50 [4, 6]: 3.2 nM"
CCC[C@H]1C(=O)N[C@@H]([C@@H](C)CC)C(=O)N(C)CC(=O)N(C)[C@H]2C/C=C\CCN(C2=O)[C@@H](Cc2ccc(C(F)(F)F)cc2)C(=O)N(C)CC(=O)N[C@@H](CCc2cc(Cl)c3c(ccn3C)c2)C(=O)N2C[C@H](OCC)C[C@H]2C(=O)NC2(CC(C)(C)C2)C(=O)N(C)[C@@H](C(CC)CC)C(=O)N(C)[C@H](C(=O)N(C)C)CC(=O)N1C [PP2896],,,,"NRAS/KRAS (ratio of KD value with respect to GDP-bound NRAS wild-type protein to KD value with respect to KRAS) ([2]; class symbols): A (a compound having 10 or more and less than 20 is denoted as A); HRAS/KRAS (ratio of KD value with respect to GDP-bound HRAS wild-type protein to KD value with respect to KRAS) ([3]; class symbols): A (a compound having 10 or more and less than 20 is denoted as A); IC50 [4, 6]: 79.3 nM"
CC[C@H](C)[C@@H]1NC(=O)[C@H](CC(C)C)N(C)C(=O)C[C@@H](C(=O)N(C)C)N(C)C(=O)[C@H](C2CCCC2)N(C)C(=O)C2(CC(C)(C)C2)NC(=O)[C@@H]2C[C@@H](C)CN2C(=O)[C@H](CCc2ccc(C(F)(F)F)c(OC)c2)NC(=O)CN(C)C(=O)[C@H](Cc2ccc(C)cc2)N2CC/C=C\C[C@@H](C2=O)N(C)C(=O)CN(C)C1=O [PP1908],A (a compound having 10 or more and less than 20 is denoted as A),B (a compound having 3 or more and less than 10 is denoted as B),10.1,
C#CC[C@H]1C(=O)N[C@@H]([C@@H](C)CC)C(=O)N(C)CC(=O)N(C)[C@H]2C/C=C\CCN(C2=O)[C@@H](Cc2ccc(C(F)(F)F)cc2)C(=O)N(C)CC(=O)N[C@@H](CCc2ccc(C(F)(F)F)c(OC)c2)C(=O)N2C[C@H](OCC)C[C@H]2C(=O)NC2(CC(C)(C)C2)C(=O)N(C)[C@@H](C2CCCC2)C(=O)N(C)[C@H](C(=O)N(C)C)CC(=O)N1C [PP1677],A (a compound having 10 or more and less than 20 is denoted as A),A (a compound having 10 or more and less than 20 is denoted as A),3.4,
"C=CCC[C@H]1C(=O)N(CC=C)[C@H](Cc2ccccc2)C(=O)N(C)CC(=O)N[C@H](CCc2ccc(C(F)(F)F)c(Cl)c2)C(=O)N2CCC[C@H]2C(=O)NC2(CCCC2)C(=O)N(C)[C@@H](C2CCCC2)C(=O)N(C)[C@H](C(=O)N2CCOCC2)CC(=O)N(C)[C@@H](CC(C)C)C(=O)N[C@@H]([C@@H](C)CC)C(=O)N(C)CC(=O)N1C [PP0599] ([NMeL]I[Sar][NMeNle(5-ene)][X3][Sar][dhPhe(3-Cl,4-CF3)]P[Ac5c][NMeGly(cPent)][NMeD]-Morpholide; lactam N-11)",,,2800,NRAS/KRAS (ratio of KD value with respect to GDP-bound NRAS wild-type protein to KD value with respect to KRAS) ([2]; SPR): C (A compound having a KD ratio of 0.1 or more and less than 3 is denoted as C); HRAS/KRAS (ratio of KD value with respect to GDP-bound HRAS wild-type protein to KD value with respect to KRAS) ([3]; SPR): B (a compound having 3 or more and less than 10 is denoted as B)
CC[C@H](C)[C@@H]1NC(=O)[C@H](CC(C)C)N(C)C(=O)CSC[C@@H](C(=O)N(C)C)N(C)C(=O)[C@H](C2CCCC2)N(C)C(=O)C2(CCCC2)NC(=O)[C@@H]2CCCN2C(=O)[C@H](CCc2cc(F)c(C(F)(F)F)c(F)c2)NC(=O)CN(C)C(=O)[C@H](Cc2ccc(C(F)(F)F)cc2)N2CC/C=C\C[C@@H](C2=O)N(C)C(=O)CN(C)C1=O (stereo in doubt) [PP3109],,,,"Kd ([1]; SPR Single Cycle Kinetics, 1:1 binding model): 3000 nM"
CC[C@H](C)C1NC(=O)[C@H](CC(C)C)N(C)C(=O)C[C@@H](C(=O)N(C)C)N(C)C(=O)[C@H](C2CCCC2)N(C)C(=O)C2(CCCC2)NC(=O)C2CCCN2C(=O)[C@@H](CCc2ccc(C(F)(F)F)c(Cl)c2)NC(=O)CN(C)C(=O)[C@@H](Cc2ccc(C)cc2)N2CC/C=C\CCN(CC2=O)C(=O)CN(C)C1=O (stereo partly shown) [PP0618],,,79.1,NRAS/KRAS (ratio of KD value with respect to GDP-bound NRAS wild-type protein to KD value with respect to KRAS) ([2]; SPR): C (A compound having a KD ratio of 0.1 or more and less than 3 is denoted as C); HRAS/KRAS (ratio of KD value with respect to GDP-bound HRAS wild-type protein to KD value with respect to KRAS) ([3]; SPR): C (A compound having a KD ratio of 0.1 or more and less than 3 is denoted as C)
CCO[C@@H]1C[C@H]2C(=O)NC3(CC(C)(C)C3)C(=O)N(C)[C@@H](C3CCCC3)C(=O)N(C)[C@H](C(=O)N(C)C)CC(=O)N(C)[C@@H](CC)C(=O)N[C@@H]([C@@H](C)CC)C(=O)N(C)CC(=O)N(C)[C@H]3C/C=C\CCN(C3=O)[C@@H](Cc3ccc(C)cc3)C(=O)N(C)CC(=O)N[C@@H](CCc3ccc(C(F)(F)F)c(Cl)c3)C(=O)N2C1 [PP1878],A (a compound having 10 or more and less than 20 is denoted as A),A (a compound having 10 or more and less than 20 is denoted as A),8.8,
